Columns and labels:
Assay in all cases: Histone peptide microarray
Format in all cases: binding, human
[1] = system: KDM4C (TTP); details: sheet "Array Heatmap"; GST-tagged KDM4C (TTP); arrays performed twice, total replicate number n = 4
Summary of the method: (§1)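 GST-tagged PHD readers, 0.5 μM, probed on a microarray of 293 synthetic histone peptides carrying single or combinatorial PTMs (optimized Petell protocol). Signals are averaged over 4 replicates and expressed as relative binding.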

[2] = system: KDM5A (1); details: sheet "Array Heatmap"; GST-tagged KDM5A (1); arrays performed twice, total replicate number n = 4
Summary of the method: as §1

[3] = system: CHD5 (PPCC); details: sheet "Array Heatmap"; GST-tagged CHD5 (PPCC); arrays performed twice, total replicate number n = 4
Summary of the method: as §1

[4] = system: CHD4 (PPCC); details: sheet "Array Heatmap"; GST-tagged CHD4 (PPCC); arrays performed twice, total replicate number n = 4
Summary of the method: as §1

[5] = system: PHF23; details: sheet "Array Heatmap"; GST-tagged PHF23; arrays performed twice, total replicate number n = 4
Summary of the method: as §1

[6] = system: RAG2; details: sheet "Array Heatmap"; GST-tagged RAG2; arrays performed twice, total replicate number n = 4
Summary of the method: as §1

[7] = system: AIRE (PP); details: sheet "Array Heatmap"; GST-tagged AIRE (PP); arrays performed twice, total replicate number n = 4
Summary of the method: as §1

[8] = system: TRIM66 (PB); details: sheet "Array Heatmap"; GST-tagged TRIM66 (PB); arrays performed twice, total replicate number n = 4
Summary of the method: as §1

[9] = system: KDM7A; details: sheet "Array Heatmap"; GST-tagged KDM7A; arrays performed twice, total replicate number n = 4
Summary of the method: as §1

[10] = system: ING1; details: sheet "Array Heatmap"; GST-tagged ING1; arrays performed twice, total replicate number n = 4
Summary of the method: as §1

[11] = system: ING2; details: sheet "Array Heatmap"; GST-tagged ING2; arrays performed twice, total replicate number n = 4
Summary of the method: as §1

[12] = system: PHRF1 (RP); details: sheet "Array Heatmap"; GST-tagged PHRF1 (RP); arrays performed twice, total replicate number n = 4
Summary of the method: as §1

[13] = system: MORC3 (CW); details: sheet "Array Heatmap"; GST-tagged MORC3 (CW); arrays performed twice, total replicate number n = 4
Summary of the method: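 Each reader, produced as a GST fusion and purified, was tested at 0.5 μM on synthetic histone peptides (293 in total) carrying single or combinatorial marks. Intensities averaged over four replicates.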

[14] = system: ING3; details: sheet "Array Heatmap"; GST-tagged ING3; arrays performed twice, total replicate number n = 4
Summary of the method: as §1

[15] = system: KDM5B (3); details: sheet "Array Heatmap"; GST-tagged KDM5B (3); arrays performed twice, total replicate number n = 4
Summary of the method: as §1

[16] = system: KDM5A (3); details: sheet "Array Heatmap"; GST-tagged KDM5A (3); arrays performed twice, total replicate number n = 4
Summary of the method: as §1

[17] = system: SP140L; details: sheet "Array Heatmap"; GST-tagged SP140L; arrays performed twice, total replicate number n = 4
Summary of the method: as §1

[18] = system: BPTF (PB); details: sheet "Array Heatmap"; GST-tagged BPTF (PB); arrays performed twice, total replicate number n = 4
Summary of the method: as §1

[19] = system: DPF2 (PPC2W2); details: sheet "Array Heatmap"; GST-tagged DPF2 (PPC2W2); arrays performed twice, total replicate number n = 4
Summary of the method: as §1

[20] = system: PHF2; details: sheet "Array Heatmap"; GST-tagged PHF2; arrays performed twice, total replicate number n = 4
Summary of the method: as §1

[21] = system: ING5; details: sheet "Array Heatmap"; GST-tagged ING5; arrays performed twice, total replicate number n = 4
Summary of the method: as §1

[22] = system: PHF13; details: sheet "Array Heatmap"; GST-tagged PHF13; arrays performed twice, total replicate number n = 4
Summary of the method: as §1

[23] = system: BAZ2B; details: sheet "Array Heatmap"; GST-tagged BAZ2B; arrays performed twice, total replicate number n = 4
Summary of the method: as §1

[24] = system: DIDO1; details: sheet "Array Heatmap"; GST-tagged DIDO1; arrays performed twice, total replicate number n = 4
Summary of the method: as §1

[25] = system: MLL5; details: sheet "Array Heatmap"; GST-tagged MLL5; arrays performed twice, total replicate number n = 4
Summary of the method: as §1

[26] = system: ING4; details: sheet "Array Heatmap"; GST-tagged ING4; arrays performed twice, total replicate number n = 4
Summary of the method: as §1

[27] = system: KDM5B (1); details: sheet "Array Heatmap"; GST-tagged KDM5B (1); arrays performed twice, total replicate number n = 4
Summary of the method: as §1

[28] = system: CHD5 (PCC); details: sheet "Array Heatmap"; GST-tagged CHD5 (PCC); arrays performed twice, total replicate number n = 4
Summary of the method: as §1

[29] = system: TAF3; details: sheet "Array Heatmap"; GST-tagged TAF3; arrays performed twice, total replicate number n = 4
Summary of the method: as §1

[30] = system: PHF21A; details: sheet "Array Heatmap"; GST-tagged PHF21A; arrays performed twice, total replicate number n = 4
Summary of the method: as §1

[31] = system: PHF8; details: sheet "Array Heatmap"; GST-tagged PHF8; arrays performed twice, total replicate number n = 4
Summary of the method: as §1

H3 15-34: H3 15-34
Array Heatmap signal, KDM4C (TTP) [1]: 0.5661
Array Heatmap signal, KDM5A (1) [2]: 0.5387
Array Heatmap signal, CHD5 (PPCC) [3]: 0.6174
Array Heatmap signal, CHD4 (PPCC) [4]: 0.5968
Array Heatmap signal, PHF23 [5]: 0.5205
Array Heatmap signal, RAG2 [6]: 0.2601
Array Heatmap signal, AIRE (PP) [7]: 0.5155
Array Heatmap signal, TRIM66 (PB) [8]: 0.5952
Array Heatmap signal, KDM7A [9]: 0.4439
Array Heatmap signal, ING1 [10]: 0.5616
Array Heatmap signal, ING2 [11]: 0.6111
Array Heatmap signal, PHRF1 (RP) [12]: 0.4582
Array Heatmap signal, MORC3 (CW) [13]: 0.3679
Array Heatmap signal, ING3 [14]: 0.5057
Array Heatmap signal, KDM5B (3) [15]: 0.4984
Array Heatmap signal, KDM5A (3) [16]: 0.4281
Array Heatmap signal, SP140L [17]: 0.3812
Array Heatmap signal, BPTF (PB) [18]: 0.3761
Array Heatmap signal, DPF2 (PPC2W2) [19]: 0.6945
Array Heatmap signal, PHF2 [20]: 0.4604
Array Heatmap signal, ING5 [21]: 0.4109
Array Heatmap signal, PHF13 [22]: 0.6527
Array Heatmap signal, BAZ2B [23]: 0.514
Array Heatmap signal, DIDO1 [24]: 0.6822
Array Heatmap signal, MLL5 [25]: 0.5742
Array Heatmap signal, ING4 [26]: 0.5265
Array Heatmap signal, KDM5B (1) [27]: 0.7112
Array Heatmap signal, CHD5 (PCC) [28]: 0.8306
Array Heatmap signal, TAF3 [29]: 0.3059
Array Heatmap signal, PHF21A [30]: 0.5191
Array Heatmap signal, PHF8 [31]: 0.3827

H3 30-49: H3 30-49
Array Heatmap signal, KDM4C (TTP) [1]: 0.4088
Array Heatmap signal, KDM5A (1) [2]: 0.3827
Array Heatmap signal, CHD5 (PPCC) [3]: 0.4615
Array Heatmap signal, CHD4 (PPCC) [4]: 0.528
Array Heatmap signal, PHF23 [5]: 0.4894
Array Heatmap signal, RAG2 [6]: 0.2065
Array Heatmap signal, AIRE (PP) [7]: 0.3585
Array Heatmap signal, TRIM66 (PB) [8]: 0.5425
Array Heatmap signal, KDM7A [9]: 0.3271
Array Heatmap signal, ING1 [10]: 0.4722
Array Heatmap signal, ING2 [11]: 0.5897
Array Heatmap signal, PHRF1 (RP) [12]: 0.3713
Array Heatmap signal, MORC3 (CW) [13]: 0.3313
Array Heatmap signal, ING3 [14]: 0.4287
Array Heatmap signal, KDM5B (3) [15]: 0.3902
Array Heatmap signal, KDM5A (3) [16]: 0.3525
Array Heatmap signal, SP140L [17]: 0.3311
Array Heatmap signal, BPTF (PB) [18]: 0.2984
Array Heatmap signal, DPF2 (PPC2W2) [19]: 0.6079
Array Heatmap signal, PHF2 [20]: 0.4841
Array Heatmap signal, ING5 [21]: 0.2813
Array Heatmap signal, PHF13 [22]: 0.5208
Array Heatmap signal, BAZ2B [23]: 0.368
Array Heatmap signal, DIDO1 [24]: 0.6094
Array Heatmap signal, MLL5 [25]: 0.4726
Array Heatmap signal, ING4 [26]: 0.3885
Array Heatmap signal, KDM5B (1) [27]: 0.5482
Array Heatmap signal, CHD5 (PCC) [28]: 0.7179
Array Heatmap signal, TAF3 [29]: 0.2243
Array Heatmap signal, PHF21A [30]: 0.4117
Array Heatmap signal, PHF8 [31]: 0.3204

H3 105-124: H3 105-124
Array Heatmap signal, KDM4C (TTP) [1]: 0.5235
Array Heatmap signal, KDM5A (1) [2]: 0.4735
Array Heatmap signal, CHD5 (PPCC) [3]: 0.5675
Array Heatmap signal, CHD4 (PPCC) [4]: 0.628
Array Heatmap signal, PHF23 [5]: 0.5245
Array Heatmap signal, RAG2 [6]: 0.2418
Array Heatmap signal, AIRE (PP) [7]: 0.5002
Array Heatmap signal, TRIM66 (PB) [8]: 0.6004
Array Heatmap signal, KDM7A [9]: 0.4014
Array Heatmap signal, ING1 [10]: 0.4905
Array Heatmap signal, ING2 [11]: 0.5916
Array Heatmap signal, PHRF1 (RP) [12]: 0.3871
Array Heatmap signal, MORC3 (CW) [13]: 0.3313
Array Heatmap signal, ING3 [14]: 0.4768
Array Heatmap signal, KDM5B (3) [15]: 0.4564
Array Heatmap signal, KDM5A (3) [16]: 0.3849
Array Heatmap signal, SP140L [17]: 0.3548
Array Heatmap signal, BPTF (PB) [18]: 0.3405
Array Heatmap signal, DPF2 (PPC2W2) [19]: 0.5942
Array Heatmap signal, PHF2 [20]: 0.4643
Array Heatmap signal, ING5 [21]: 0.3472
Array Heatmap signal, PHF13 [22]: 0.6001
Array Heatmap signal, BAZ2B [23]: 0.4756
Array Heatmap signal, DIDO1 [24]: 0.6132
Array Heatmap signal, MLL5 [25]: 0.5209
Array Heatmap signal, ING4 [26]: 0.4475
Array Heatmap signal, KDM5B (1) [27]: 0.6304
Array Heatmap signal, CHD5 (PCC) [28]: 0.8446
Array Heatmap signal, TAF3 [29]: 0.2585
Array Heatmap signal, PHF21A [30]: 0.4845
Array Heatmap signal, PHF8 [31]: 0.3594

From paper PMC6979384, “Characterization of the plant homeodomain (PHD) reader family for their histone tail interactions” (Epigenetics & Chromatin, 2020)
